Test results from paper PMC4414177, “A novel orally active water-soluble inhibitor of human glutathione transferase exerts a potent and selective antitumor activity against human melanoma xenografts” (Oncotarget, 2015).

Columns and labels:
A375 human melanoma = assay: A375 fragment xenograft model, antitumor efficacy; format: in vivo, mice; details: MC3181 i.v. 8mg/kg/d q1dx5 three weeks
Procedure: With regard to the in vivo fragment tumor model, A375 cells were injected (1×10^7) subcutaneously (s.c.) into the right flank of an athymic Nude-Foxn1nu female mouse, and the established primary tumor was then removed and cut into fragments (2–3 mm diameter) and implanted s.c. into recipient mice. Animals were randomly divided in groups of 7 mice and treatment was initiated when a tumor volume of 0.12 ± 0.01 cm^3 (mean ± SEM) was reached.
The reference drug temozolomide, dissolved in DMSO/PBS 1:1 to a final concentration of 10 mg/ml, was administered i.p. q1dx5 at a dose of 100mg/kg/day.
(§1) Primary tumor growth was determined for all animals by caliper measurement (minor and major axis length), three times per week, until they were sacrificed. Primary tumor volume was determined using the following equation: V (cm^3)=(α^2×β)/2 (Eq. 3)
(§2) The efficacy of the treatment was also analyzed by calculation of the percentage of Increase in Life Span (% ILS), since this analysis gives an evidence of clinical potency. Survival endpoint for each animal was fixed at the day when tumor volume reached 1.0 cm^3 (A375) or 0.4 cm^3 (SK23-MEL and G-361), and data were used to plot the relative Kaplan-Meier curves. Treatment efficacy was then evaluated by comparing the Median Survival Time (MST) of treated group with the MST of control group, and expressed as percentage of ILS: % ILS=[100×(MSTtreated group)/(MSTcontrol group)]−100 (Eq. 4)
(§3) Treatment was considered effective when % ILS > 20%.

A375 tumor xenografts = assay: Immunohistochemical analysis of A375 tumor xenografts; format: in vivo, mice
Excerpt: (§4) At sacrifice, tumors were removed, formalin-fixed and paraffin embedded. All internal organs were fixed and paraffin embedded for the morphological study to evaluate drug effects in normal tissues. Three μm-thick sections were cut and stained with haematoxylin and eosin (H&E). Two observers blindly classified the tissues for necrotic areas, evaluated as percent of total area, mitosis number in 10 high power field randomly selected away from the ischemic necrosis.
Briefly, 3-μm-thick sections were pre-treated with EDTA citrate pH 7.8, for 30 min, at 95°C and then incubated respectively with rabbit monoclonal anti-Phospho-SAPK/JNK (1:100, 81E11, Cell Signaling, Danvers Massachusetts, USA) and rabbit polyclonal anti-Caspase3, for 60 min (1:100, PA5-16335, ThermoFisher Scientific, Walthman, MA, USA). Washing were performed with PBS 4% + Tween20, pH 7.6, by UCS diagnostic.

SK23-MEL cells [1] = assay: Annexin V / PI staining (flow cytometry); format: cell-based, human; details: 48 hrs of treatment
Procedure: (§5) A375 and SK23-MEL cells, were fixed with 70% ethanol overnight, stained with PI staining buffer ([…] and 1% Triton X-100) and analyzed by a FACSCalibur (BD Bioscence, San Jose, CA, USA). The percentage of early apoptotic, late apoptotic, and necrotic cells was determined by simultaneous staining of cells with PI (2 μg/ml) and Annexin V-FITC (0.5 μg/ml) (Sigma Aldrich), according to manufacturer's protocol. Flow cytometric data were analyzed by the FlowJo 8.8.6 software (Tree Stare, Inc, Ashland, OR, USA).

A375 cells [2] = assay: Annexin V / PI staining (flow cytometry); format: cell-based, human
Procedure: as §5

MALME-3M = assay: Cell growth inhibition, SRB assay; format: cell-based; details: Homo sapiens, 48 h
Procedure: (§6) The IC50 values for each compound were then evaluated by the SRB assay.

IST-MEL-1 = assay: Cell growth inhibition, SRB assay; format: cell-based; details: Homo sapiens, IST-MEL-1, 48 h
Procedure: as §6

SK23-MEL = assay: Cell growth inhibition, SRB assay; format: cell-based; details: Homo sapiens, 48 h
Procedure: as §6

A375 = assay: Cell growth inhibition, SRB assay; format: cell-based; details: Homo sapiens, A-375, A375, 48 h
Procedure: as §6

G-361 = assay: Cell growth inhibition, SRB assay; format: cell-based; details: Homo sapiens, G-361, 48 h
Procedure: as §6

SK23-MEL cells [3] = assay: Cell cycle analysis (PI, flow cytometry); format: cell-based, human; details: 7 μM
Procedure: as §5

A375 cells [4] = assay: Cell cycle analysis (PI, flow cytometry); format: cell-based, human; details: A375, 10 μM
Procedure: as §5

[5] = tested on: five cultured human melanoma cell lines; assay: Cell growth inhibition, SRB assay, whole panel; format: cell-based; details: range over A375, G-361, MALME-3M, IST-MEL-1, SK23-MEL
Procedure: as §6

SK23-MEL cells [6] = assay: Caspase-3 activity in cell lysates; format: cell-based, human; details: 7 μM
Procedure: (§7) Apoptosis was confirmed by measuring caspase-3 activity, at 25°C, in total cell lysates, using the model fluorescent peptide substrate N-Acetyl-Asp-Glu-Val-Asp-7-amido-4-trifluoromethylcoumarin (Ac-DEVD-AFC). […] Caspase activity was expressed as change in fluorescence per min, per 10^6 cells.

A375 cells [7] = assay: Caspase-3 activity in cell lysates; format: cell-based, human; details: A375, 10 μM
Procedure: as §7

SK23-MEL tumors = assay: Histological analysis of SK23-MEL tumors; format: in vivo, mice; details: SK23-MEL xenografts, MC3181-treated
Excerpt: as §4

SK23-MEL cells [8] = assay: Cell morphology (phase-contrast microscopy); format: cell-based, human; details: 7 μM, 48 hrs
[9] = tested on: G-361 human melanoma cells; assay: G-361 cellular xenograft model, antitumor efficacy; format: in vivo, mice; details: G-361 xenograft
Procedure: SK23-MEL and G-361 cells were injected s.c. (in both cases, 1×10^6) into the right flank of NOD/SCID and SCID male mice, respectively. Animals were randomly divided in groups of 6 mice and treatments were started at day 10 (SK23-MEL) and 14 (G-361), when tumors were clearly palpable.
as §1, §2, §3

In the case of `O=[N+]([O-])c1ccc(SCCOCCOCCO)c2nonc12` [MC3181, 2-(2-(2-((7-nitrobenzo[c][1,2,5]oxadiazol-4-yl)thio)ethoxy)ethoxy)ethanol], the “%ILS” value (A375 human melanoma; TMZ i.p. 100 mg/kg/d q1dx5) is reported as 53%, the tumor growth (A375 human melanoma; TMZ i.p. 100 mg/kg/d q1dx5, from day 13 onward, P < 0.05) is reported as “significantly delayed tumor growth” and the “higher apoptosis compared to untreated controls” value (A375 tumor xenografts; A375 tumor xenografts, data not shown) is reported as “about 20%”. The “JNK phosphorylation and caspase-3 in tumors” value (A375 tumor xenografts; A375 xenografts, 8 mg/kg, P-JNK 6 hrs after treatment, caspase-3 at end of treatment) was “significant increase of JNK phosphorylation and caspase-3 activity”, the “percentage of total apoptotic cells” value (SK23-MEL cells [1]) was “about 20%” and the “percentage of total apoptotic cells” value (A375 cells [2]; A375, 24 hrs post-treatment) was “approximately 23%”. For the same molecule, the “percentage of total apoptotic cells” value (A375 cells [2]; A375, 48 hrs post-treatment) was roughly 37%, the IC50 (MALME-3M) was 2.42 ± 0.16 µM and the IC50 (IST-MEL-1) was 0.92 ± 0.07 µM. It also gave an IC50 (SK23-MEL) of 1.79 ± 0.05 µM, an IC50 (A375) of 2.31 ± 0.04 µM and an IC50 (G-361) of 0.78 ± 0.04 µM. The “increase in the number of cells in sub-G1 phase” value (SK23-MEL cells [3]; 24 hrs) was “about 10%”, the “increase in the number of cells in sub-G1 phase” value (SK23-MEL cells [3]; 48 hrs) was roughly 20% and the “increase in the amount of cells in the sub-G1 phase” value (A375 cells [4]; 24 hrs) was “about 27%”. For the same molecule, the “increase in the amount of cells in the sub-G1 phase” value (A375 cells [4]; 48 hrs) was roughly 36%, the IC50 [5] was 0.8 to 2.4 µM and the caspase-3 activation (SK23-MEL cells [6]) was “negligible increase of proteolitic activity”. For the same molecule, the caspase-3 activation (A375 cells [7]) was “strong caspase-3 activity”, the tumor histology (SK23-MEL tumors) was “melanin production” and the cell morphology (SK23-MEL cells [8]) was “clear morphological changes”. For the same molecule, the “animals still alive at the end of the observation period” value ([9]; 8 mg/kg/day oral) was 50%, the disease course ([9]; 8 mg/kg/day oral) was “stabilization and regression of the disease in half of the treated mice” and the tumor growth ([9]; 8 mg/kg/day, both administration routes (i.v., oral)) was “significant delay in tumor growth”.
